Assay results taken from patent publication EP1180094B1, “FUSED POLYCYCLIC AMINO ACIDS AS PHARMACEUTICAL AGENTS” (WARNER-LAMBERT COMPANY, priority 1999, dated 2000).

How the values were obtained:
[1] = test system: carrageenan-induced hyperalgesia model; experiment: Carrageenin-induced hyperalgesia, rat paw pressure test (Randall-Selitto); format: in vivo; conditions: dosed orally at 30 mg/kg
Procedure: Nociceptive pressure thresholds were measured in the rat paw pressure test using an analgesimeter (Randall-Selitto method: Randall L.O. and Selitto J.J., "A method for measurement of analgesic activity on inflamed tissue," Arch. Int. Pharmacodyn., 1957;4:409-419). Male Sprague-Dawley rats (70-90 g) were trained on this apparatus before the test day. Pressure was gradually applied to the hind paw of each rat and nociceptive thresholds were determined as the pressure (g) required to elicit paw withdrawal. A cutoff point of 250 g was used to prevent any tissue damage to the paw. On the test day, two to three baseline measurements were taken before animals were administered 100 µL of 2% carrageenin by intraplantar injection into the right hind paw. […] Animals were dosed with either gabapentin ([…].), morphine (3 mg/kg, s.c.) or saline at 3.5 hours after carrageenin and nociceptive thresholds were examined at 4, 4.5, and 5 hours postcarrageenin.
(R)-2-Aza-spiro[4.5]decane-4-carboxylic acid hydrochloride was tested in the above carrageenan-induced hyperalgesia model. The compound was dosed orally at 30 mg/kg, and 1 hour postdose gave a percent of maximum possible effect (MPE) of 53%. At 2 hours postdose, it gave only 4.6% of MPE.

[2] = test system: Carrageenan Induced Thermal Hyperalgesia Model (rat); experiment: Carrageenan induced thermal hyperalgesia model; format: in vivo

| SMILES | percent of maximum possible effect (MPE) ([1]; 1 hour postdose) | percent of maximum possible effect (MPE) ([1]; 2 hours postdose) | Carrageenan Induced Thermal Hyperalgesia Model (rat). %MPE* at time postdose @30 mg/Kg p.o. ([2]; 1h postdose) | Carrageenan Induced Thermal Hyperalgesia Model (rat). %MPE* at time postdose @30 mg/Kg p.o. ([2]; 2h postdose) |
| --- | --- | --- | --- | --- |
| Cl.O=C(O)[C@H]1CNCC12CCCCC2 [(R)-2-Aza-spiro[4.5]decane-4-carboxylic acid hydrochloride] | 53% | 4.6% |  |  |
| NCC1(CC(=O)O)Cc2ccccc2C1 [(2-aminomethyl-indan-2-yl)-acetic acid] |  |  | 28.5 (1h) %MPE | 10 (2h) %MPE |
